Where two headings read alike, the source gives them in different places.
Legend:
[1] = test system: β2AR; conditions: for log bias factor (mGs/Arr2): ΔΔlog(Emax/EC50) relative to reference formoterol, from peak responses
Protocol: To determine the relative effectiveness of the compounds to activate the different signaling pathways, the difference between the log(E max/EC50) values was calculated.
Using the estimates of agonist activity Δlog(E max/EC50) for the test and reference agonists, pathway log bias was calculated as follows: 3 ΔΔlog(Emax/EC50)=Δlog(Emax/EC50)P1−Δlog(Emax/EC50)P2 where pathway 1 (P1) is mGs-dependent recruitment and pathway 2 (P2) is β-arrestin2 recruitment. Bias factors were calculated by taking the antilog of the ΔΔlog(E max/EC50).
Error on the pathway bias was calculated using the following formula: 4 SEMΔΔlog(Emax/EC50)=SEMΔlog(Emax/EC50)P12+SEMΔlog(Emax/EC50)P22

[2] = target: T1, β2AR (Homo sapiens, UniProt P07550); assay: nanoBRET mGs protein recruitment assay in T-REx-293-β2AR-nLuc cells; format: cell-based; conditions: for EC50: mean ± SEM
Target sequence in this assay (P07550 whole entry): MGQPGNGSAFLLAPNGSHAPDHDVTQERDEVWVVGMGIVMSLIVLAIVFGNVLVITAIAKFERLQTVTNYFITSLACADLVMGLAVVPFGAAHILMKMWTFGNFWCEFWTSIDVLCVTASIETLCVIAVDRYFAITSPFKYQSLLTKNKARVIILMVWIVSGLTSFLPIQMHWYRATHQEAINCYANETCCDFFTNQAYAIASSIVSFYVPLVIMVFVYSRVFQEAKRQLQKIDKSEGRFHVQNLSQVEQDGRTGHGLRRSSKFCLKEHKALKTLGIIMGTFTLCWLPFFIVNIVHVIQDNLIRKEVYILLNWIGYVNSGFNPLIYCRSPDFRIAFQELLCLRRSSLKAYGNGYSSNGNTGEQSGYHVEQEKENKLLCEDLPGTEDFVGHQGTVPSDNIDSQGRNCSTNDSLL

[3] = target: T1, β2AR; assay: nanoBRET β-arrestin2 recruitment assay in T-REx-293-β2AR-nLuc cells; format: cell-based; conditions: for EC50: mean ± SEM
Target sequence in this assay (P07550 whole entry): as above
Target sequence in this assay (P32121 whole entry partner): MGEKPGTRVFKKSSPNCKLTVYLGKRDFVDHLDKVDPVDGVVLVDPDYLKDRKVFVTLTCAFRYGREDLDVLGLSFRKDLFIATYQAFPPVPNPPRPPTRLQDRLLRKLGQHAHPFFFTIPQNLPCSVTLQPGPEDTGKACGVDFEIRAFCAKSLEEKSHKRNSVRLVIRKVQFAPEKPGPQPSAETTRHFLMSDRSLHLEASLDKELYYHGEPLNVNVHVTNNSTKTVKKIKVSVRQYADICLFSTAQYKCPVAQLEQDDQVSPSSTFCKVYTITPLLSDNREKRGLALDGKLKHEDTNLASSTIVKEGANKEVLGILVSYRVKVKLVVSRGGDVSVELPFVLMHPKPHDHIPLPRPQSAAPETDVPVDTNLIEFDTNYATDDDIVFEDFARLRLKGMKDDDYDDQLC

[4] = target: β2AR; conditions: cited from earlier work
[5] = read-out: mGs Emax at room temperature
[6] = read-out: mGs Emax derived from AUC analysis
[7] = read-out: β-arrestin2 Emax at room temperature
[8] = ΔΔlog(Emax/EC50) relative to formoterol, AUC-derived
[9] = read-out: β-arrestin2 Emax derived from AUC analysis

COc1ccc(CC(C)NCC(O)c2ccc(O)c(NC=O)c2)cc1 (stereo not shown) [Formoterol]
log bias factor (mGs/Arr2) [1]: 0 ± 0.10

CC(C)(C)NCC(O)c1ccccc1Cl (stereo not shown) [Tulobuterol]
Emax ([2]; read-out: mGs E max): 33.6 ± 0.6% | Emax [2, 5]: 41.9 ± 1.4% | Emax [2, 6]: 32.8 ± 0.4% | Emax [3, 7]: 8.8 ± 1%

CC(C)NCC(O)c1ccc(O)c(O)c1 (stereo not shown) [Isoprenaline, isoprenaline]
Log Bias Factor (mGs/Arr2) from AUC analysis [1]: 0.51 ± 0.07 | log bias factor (mGs/Arr2) [1]: 0.48 ± 0.14

CC(C)(C)NCC(O)c1ccc(O)c(CO)c1 (stereo not shown) [Salbutamol]
Log Bias Factor (mGs/Arr2) from AUC analysis [1, 8]: 1.65 ± 0.06 | log bias factor (mGs/Arr2) [1]: 1.42 ± 0.19

CC(Cc1ccc(O)cc1)NCC(O)c1cc(O)cc(O)c1 (stereo not shown) [Fenoterol, fenoterol]
Emax ([2]; read-out: mGs E max): 77 ± 0.4% | Emax [2, 5]: 73.9 ± 2.1% | Emax [2, 6]: 76.7 ± 0.8% | Log Bias Factor (mGs/Arr2) from AUC analysis [1, 8]: 0.37 ± 0.05 | log bias factor (mGs/Arr2) [1]: 0.32 ± 0.11 | Emax ([3]; read-out: β-arrestin2 E max): 85 ± 2.5% | Emax [3, 7]: 83.8 ± 7.1% | Emax [3, 9]: 93.6 ± 8.1%

OCc1cc(C(O)CNCCCCCCOCCCCc2ccccc2)ccc1O (stereo not shown) [Salmeterol]
log bias factor (mGs/Arr2) [1]: 0.53 ± 0.15

C=CCc1ccccc1OCC(O)CNC(C)C (stereo not shown) [Alprenolol]
Ki [4]: 0.912 nM

CCC(NC(C)C)C(O)c1ccc(O)c(O)c1 (stereo not shown) [Isoetharine]
EC50 ([2]; AUC analysis, 37 °C, read-out: mGs pEC50 derived from AUC analysis (converted)): 38 nM | EC50 ([2]; peak response at 30 min, 37 °C, read-out: mGs pEC50 (converted)): 61.7 nM | Emax ([2]; read-out: mGs E max): 97.8 ± 1.4% | Emax [2, 5]: 101 ± 2.8% | Emax [2, 6]: 93.9 ± 1.7% | EC50 ([2]; room temperature, 3 observations, read-out: mGs pEC50 at room temperature (converted)): 13.5 nM | Log Bias Factor (mGs/Arr2) from AUC analysis [1, 8]: 0.79 ± 0.06 | log bias factor (mGs/Arr2) [1]: 0.59 ± 0.13 | EC50 ([3]; AUC analysis, 37 °C, read-out: β-arrestin2 pEC50 derived from AUC analysis (converted)): 224 nM | EC50 ([3]; peak response, 37 °C, read-out: β-arrestin2 pEC50 (converted)): 417 nM | Emax ([3]; read-out: β-arrestin2 E max): 112 ± 5.9% | Emax [3, 7]: 116 ± 1.7% | Emax [3, 9]: 103 ± 4.37% | EC50 ([3]; room temperature, 3 observations, read-out: β-arrestin2 pEC50 at room temperature (converted)): 209 nM | Ki [4]: 1580 nM

Source: paper PMC12369021, “Biased Signaling and Its Role in the Genesis of Short- and Long-Acting β2‑Adrenoceptor Agonists” (Biochemistry, 2025)
